Measured values taken from patent US7919255B2, “Assessment of skeletal growth using measurements of NT-CNP peptides” (priority 2003, dated 2011).

Columns and labels:
12 week old lambs = experiment: Dexamethasone 0.25 mg/kg/day for 4 days in 12 week old lambs; format: in vivo, sheep; settings: after 48 hours of dexamethasone treatment
Method: (§1) FIG. 11A and FIG. 11B: Effect of 4 days of treatment with a glucocorticoid (dexamethasone, 0.25 mg/kg/day) in 12 week old lambs (filled circles, n=8) and in adult sheep (open circles, n=8) on (A) plasma NT-CNP and (B) change (?) in plasma alkaline phosphatase activity (ALP). Values are mean±SEM;
(§2) This differential response to dexamethasone was highly significant for both NT-CNP (F=5.4, p<0.001) and ALP (F=4.1, p=0.002). After 48 hours of dexamethasone treatment, plasma NT-CNP in lambs fell 30.8±3.5% from basal compared with 17.7±2.7% in adult sheep. Both the onset and offset of dexamethasone's action on NT-CNP preceded that of ALP (FIG. 11A and FIG. 11B).

adult sheep = experiment: Dexamethasone 0.25 mg/kg/day for 4 days in adult sheep; format: in vivo; settings: after 48 hours of dexamethasone treatment
Method: as §1, §2

4 week old lambs = experiment: Dexamethasone 0.25 mg/kg/day for 15 days in 4 week old lambs versus saline; format: in vivo, sheep
Method: FIG. 12A, FIG. 12B, FIG. 12C and FIG. 12D: Effect of a glucocorticoid (dexamethasone, 0.25 mg/kg/day) (filled circles, n=8) or saline control treatment (open circles, n=8), administered to 4 week old lambs for 15 days, on (FIG. 12A) plasma NT-CNP (FIG. 12B) plasma alkaline phosphatase activity (FIG. 12C) metacarpal length and (FIG. 12D) body weight. Values are mean±SEM; and
In order to study a possible linkage between changes in NT-CNP and growth velocity, a more prolonged study was undertaken in younger growing lambs.
We undertook a study in normal lambs. Lambs (n=16, aged 4 weeks) either received dexamethasone (0.25 mg/kg/day) or saline injections (controls) for 15 days. The predictive effect of a plasma NT-CNP concentration (drawn 24 hours after starting treatment) on subsequent growth inhibition (defined as growth velocity less than 5% of that of control lambs) was examined by ROC curve analysis (FIG. 13). […] The area under the curve (AUC) was 0.85.

J39 antisera = experiment: Cross reactivities of the NT-CNP radioimmunoassay using the J39 antisera; format: binding, rabbit; settings: NT-CNP RIA
Method: Antiserum production: Human NT-CNP(1-15) (5 mg) was conjugated to 4.2 mg of bovine serum albumin (BSA, fraction V, GibcoBRL, Life Technologies) using 62.2 mg of 1-ethyl-3(3-dimethyaminopropyl) carbodiimide at pH 7 for 18 hours and dialysed against phosphate buffered saline. Rabbits were given a primary subcutaneous injection of the antigen after emulsification with an equal volume of complete Freunds adjuvant (Sigma Chemical Co., St Lois. Mo., USA). Subsequent injections using incomplete Freunds reagent were given at monthly intervals. Rabbits were bled two weeks after each injection and tested for binding of radioactive tracer and its displacement by NT-CNP (1-15) standards.
RIA for N-terminal CNP: NT-CNP(1-15)-Tyr^16 (5 μg) was iodinated using 0.5 mCi Na^125I in the presence of 10 μg chloramine-T in 5 μl 0.5M phosphate buffer, pH 7.5 for 30 seconds, followed by the addition of 50 μg cysteine, 25 μg BSA and 20 μg KI in 100 μl buffer. The resulting mixture was loaded onto a 10 m RP300 Brownlee column and eluted with a gradient from 0-60% acetonitrile in 49 mM KH2PO4 pH 2.9 over 30 min at 1 ml/min, collecting 0.5 ml fractions. The fraction containing the major peak of radioactive NT-CNP(1-15)-[^125I]Tyr^16 was used in the RIA. Peptide standards were made from synthetic human NT-CNP(1-19) taking into account the purity data supplied. […]

[1] = molecular target: antiserum J39, raised in rabbits to a synthetic peptide corresponding to the first 15 amino acids of human ProCNP(1-103), conjugated to BSA; experiment: competitive radioimmunoassay with J39 antiserum
[2] = molecular target: antiserum J39, raised in rabbits to a synthetic peptide corresponding to the first 15 amino acids of human ProCNP(1-103), conjugated to BSA; experiment: competitive radioimmunoassay: NT-CNP(1-19) standards displace NT-CNP(1-15)-[125I]Tyr16 from antiserum J39
[3] = 4 week old lambs, 0.25 mg/kg/day for 15 days

Molecule: C[C@@H]1C[C@H]2[C@@H]3CCC4=CC(=O)C=C[C@]4(C)[C@@]3(F)[C@@H](O)C[C@]2(C)[C@@]1(O)C(=O)CO [dexamethasone]
- fall in plasma NT-CNP from basal (12 week old lambs): 30.8±3.5%
- fall in plasma NT-CNP from basal (adult sheep): 17.7±2.7%
- effect on metacarpal elongation (4 week old lambs; [3]): pronounced decrease
- time for NT-CNP to return to control levels after cessation of treatment (4 week old lambs; [3]): ≤ 24 h
- time to fall in NT-CNP after starting treatment (4 week old lambs; [3]): ≤ 24 h
- effect on body weight (4 week old lambs; 4 week old lambs, compared with saline treated lambs): small but significant effect
- body weight difference between treatment groups at cessation of treatment (4 week old lambs; day 15, dexamethasone versus saline): not significantly different

Molecule: hBNP32: peptide tested for cross reactivity in the NT-CNP radioimmunoassay
- Cross reactivity (J39 antisera): < 0.05%

Molecule: hproBNP(1-21): peptide tested for cross reactivity in the NT-CNP radioimmunoassay
- Cross reactivity (J39 antisera): < 0.4%

B1: hCNP-22 (peptide)
peptide: GLSKGCFGLKLDRIGSMSGLGC
- cross reactivity [1]: < 0.03%

B2: human NT-CNP(1-19) (peptide)
peptide: KPGAPPKVPRTPPAEELAE
- ED50 [2]: 110 pM

B3: hCNP-53 (peptide)
peptide: DLRVDTKSRAAWARLLQEHPNARKYKGANKKGLSKGCFGLKLDRIGSMSGLGC
- cross reactivity [1]: < 0.07%
